Reference: patent US20060094741A1, “Remedies for neuropathic pain and model animals of neuropathic pain” (Toray Industries, Inc., a corporation of Japan, priority 1999, published 2006)
Entries after “also recorded” stand apart in the source; their conditions may differ.

Tests used:
[1] = tested on: pain-related behavior induced by intrathecal administration of Compound 1; experiment: Inhibition of tentative responses for nociception (scratching, biting, licking) induced by intrathecal Compound 1; assay type: in vivo, mouse
Protocol: (§1) Scratching, biting, and licking behavior was regarded as an index of tentative responses for nociception, and the duration of such behavior was measured for 5 minutes from 5 minutes after the administration of Compound 1 in a transparent acrylic cage (20×13×10 cm) in a single-blind manner.
(§2) Mice (ddY; weighing 22 to 25 g when the experiment was started) were kept in a plastic cage at a constant temperature and humidity (22±1° C., 55±5%) under a 12-hour light-dark cycle. The mice had free access to food and water.
(§3) Compound 1 was dissolved in a physiological saline solution (Ohtsuka Pharmaceutical Co., Ltd.) and was intrathecally administered to the mice without anesthetization. The intrathecal dose of the drug solution per mouse was 4 μl, and a 30 gauge needle and a 25 μl Hamilton syringe were used according to the method disclosed by Hylden and Wilcox (J. L. K. Hylden & G. L. Wilcox, Eur. J. Pharmacol., 67: 313-316, 1980).
(−)-17cyclopropyl-3,1 4β-dihydroxy-4,5α-epoxy-6β-[N-methyl-trans-3-(3-furyl) acrylamide] morphinan hydrochloride (Compound 2) (H. Nagase et al. Chem. Pharm. Bull. 46, 366, 1998), of which the formula is shown below, [drawing 14] as a selective opioid κ-receptor agonist compound, was intrathecally administered to the mice simultaneously with Compound 1, and the effect thereof on neuropathic pain was evaluated based on tentative responses for nociception, such as scratching, biting, and licking behavior, as indexes. The duration of such behavior was measured for 5 minutes from 5 minutes after the administration of the simultaneous administration of Compound 2 and Compound 1 (15 μg/mouse) in a transparent acrylic cage (20×13×10 cm) in a single-blind manner. Additionally, Compound 2 was dissolved in a physiological saline solution for use.
In order to determine the effect of the drug on neuropathic pain, tentative responses for nociception were tested in the case in which a low dose of 1 or 3 nmol/mouse of Compound 2 was intrathecally administered simultaneously with Compound 1 in a manner similar to that of Example 2 and in the case in which Compound 2 was subcutaneously administered so that systemic exposure to the drug was evaluated. […] Since the effectiveness of Compound 2 has also been shown in systemic exposure, it has become clear that Compound 2 is effective even if the drug is not administered topically, that is, even if the drug is administered in various dosage forms which are pharmacologically acceptable.

mice (ddY) = experiment: Production of the neuropathic pain animal model: scratching, biting and licking behavior after intrathecal Compound 1; assay type: in vivo; conditions: 7.5 μg/mouse or more, measured for 5 minutes from 5 minutes after administration
Protocol: as §2
as §3, with “(+)-4a-(3-hydroxyphenyl)-2-methyl-1,2,3,4,4a, 5,12,12a-octahydrotrans-quinolino [2,3-g]isoquinoline (Compound 1)” for “Compound 1”
as §1

[2] = tested on: pain associated with zosteriform skin lesions; experiment: Herpetic pain model, allodynia/hyperalgesia associated with zosteriform skin lesions; assay type: in vivo; conditions: orally administered; thirty minutes after the administration
Excerpt: The therapeutic effect of Compound 2 on pain associated with zoster classified under neuropathic pain was investigated. The evaluation of the therapeutic effect was made using an animal model produced according to a method disclosed in Pain, 86, 95-101, 2000.

[3] = tested on: sciatic nerve ligation mouse model; experiment: Sciatic nerve ligation mouse model, allodynia/hyperalgesia by von Frey hairs; assay type: in vivo; conditions: subcutaneous
Excerpt: The action of Compound 2 in inhibiting neuropathic pain was investigated using another, widely known neuropathic pain model. That is, the action of Compound 2 in a sciatic nerve ligation mouse model was investigated using a method in which the method disclosed by A. B. Malmberg and A. I. Basbaum (Pain, 76, 215-222, 1998) et al. was slightly modified. In order to measure allodynia or hyperalgesia generally observed in neuropathic pain, two von Frey hairs (0.17 and 1.48 g) having different strengths were used. Four weeks following the surgery, the mice were placed in an acrylic cage (90×100×300 mm) and allowed to acclimate for a minimum of 30 minutes. The von Frey hairs were applied perpendicularly to the soles of the hind feet so as to cause slight bending for a duration of approximately 3 seconds. This was repeated 6 times at intervals of several seconds. The reaction of the mouse was given a score in the manner described below.
2: Immediate escape reaction and flinching of hind paw
The reactions of the surgically operated foot and the opposite foot as control were measured before the administration of the drug, and 30 minutes and 2 hours after the administration of the drug. The difference between the score of the surgically operated foot and the score of the control foot was evaluated as allodynia or hyperalgesia. […]

[4] = simultaneous intrathecal administration with 15 μg/mouse of Compound 1

NCC(CC(=O)O)c1ccc(Cl)cc1 (stereo not shown) [Baclofen, reference compound]
inhibition of tentative responses for nociception induced by Compound 1 [1, 4]: inhibited dose-dependently

CN1CC[C@@]2(c3cccc(O)c3)Cc3nc4ccccc4cc3C[C@@H]2C1 [Compound 1, (+)-4a-(3-hydroxyphenyl)-2-methyl-1,2,3,4,4a, 5,12,12a-octahydrotrans-quinolino [2,3-g]isoquinoline]
tentative responses for nociception (duration of scratching, biting, and licking behavior) (mice (ddY)): increased significantly and dose-dependently | tentative responses for nociception (duration of scratching, biting, and licking behavior) (mice (ddY); listed as Compound I): increases dose-dependently

CN(C(=O)/C=C/c1ccoc1)[C@@H]1CC[C@@]2(O)[C@H]3Cc4ccc(O)c5c4[C@@]2(CCN3CC2CC2)[C@H]1O5.Cl [Compound 2, (−)-17cyclopropyl-3,1 4β-dihydroxy-4,5α-epoxy-6β-[N-methyl-trans-3-(3-furyl)acrylamide] morphinan hydrochloride]
inhibition of tentative responses for nociception induced by Compound 1 ([1]; 10 nmol/mouse intrathecal, simultaneously with Compound 1 (15 μg/mouse), compared to physiological saline solution-treated group): significantly inhibited | inhibition of tentative responses for nociception induced by Compound 1 ([1]; low dose of 1 or 3 nmol/mouse intrathecal, simultaneously with Compound 1, hydrochloride): dose-dependent inhibitory action; also recorded: dose-dependently inhibited | inhibition of tentative responses for nociception induced by Compound 1 ([1]; subcutaneously administered (systemic exposure), hydrochloride): dose-dependent inhibitory action; also recorded: dose-dependently inhibited | allodynia or hyperalgesia associated with zosteriform skin lesions [2]: dose-dependently inhibited allodynia or hyperalgesia | allodynia or hyperalgesia (difference between score of surgically operated foot and control foot) ([3]; after 2 hours): the effect of the drug disappeared | allodynia or hyperalgesia (difference between score of surgically operated foot and control foot) ([3]; thirty minutes after the administration, von Frey hairs 0.17 and 1.48 g): inhibited allodynia or hyperalgesia

CN1CC[C@]23c4c5ccc(O)c4O[C@H]2[C@@H](O)C=C[C@H]3[C@H]1C5 [morphine, reference compound]
inhibition of tentative responses for nociception induced by Compound 1 [1, 4]: not inhibited at all
